This is an account of results in ChEMBL document CHEMBL3997770, “An overview of the binding models of FGFR tyrosine kinases in complex with small molecule inhibitors” (Eur J Med Chem, 2017).

Test [1] concerns SNU-16. Briefly: cells. The following applies: Homo sapiens, SNU-16, 72 h.
The target of test [2] is T1, Fibroblast growth factor receptor 1 (Homo sapiens, UniProt P11362). Briefly: Inhibition of recombinant His6-tagged FGFR1 (unknown origin) expressed in Escherichia coli BL21(DE3)-RILP using peptidic substrate by ELISA. For orientation: ELISA stands for enzyme-linked immunosorbent assay.
The target of test [3] is T2, Fibroblast growth factor receptor 2 (Homo sapiens, UniProt P21802). Briefly: Inhibition of recombinant His6-tagged FGFR2 (unknown origin) expressed in Escherichia coli BL21(DE3)-RILP using peptidic substrate by ELISA.
Test [4] concerns the target T1, Fibroblast growth factor receptor 1. Briefly: Inhibition of FGFR1 kinase domain (unknown origin).
In test [5] the target is Fibroblast growth factor receptor 1 (Mus musculus, UniProt P16092). Kind of test: Inhibition of FGF induced FGFR1 autophosphorylation in mouse NIH 3T3 cells preincubated for 5 mins followed by FGF-stimulation for 5 mins in presence of [gamma-32P]ATP by SDS-PAGE based autoradiography. The test is classed as cell-based.
The target of test [6] is T2, Fibroblast growth factor receptor 2. Kind of test: Inhibition of FGFR2 (unknown origin).
Test [7] concerns the target Fibroblast growth factor receptor 3 (Homo sapiens, UniProt P22607). Kind of test: Inhibition of FGFR3 (unknown origin).
The target in test [8] is T3, Fibroblast growth factor receptor 4 (Homo sapiens, UniProt P22455). Kind of test: Inhibition of FGFR4 (unknown origin).
Test [9] concerns the target Fibroblast growth factor receptor 2 (Homo sapiens, UniProt P21802, V564M). Briefly: Inhibition of FGFR2 V564M mutant (unknown origin).
For test [10], the target named is T1, Fibroblast growth factor receptor 1. Kind of test: Inhibition of FGFR1 (unknown origin).
Test [11] concerns the target T3, Fibroblast growth factor receptor 4. Kind of test: Inhibition of human N-terminal GST-tagged FGFR4 cytoplasmic domain (460 to 802 end residues) expressed in baculovirus expression system using CSKtide as substrate after 90 mins.
Test [12] concerns the target Epidermal growth factor receptor (Homo sapiens, UniProt P00533, L858R). Kind of test: Inhibition of EGFR L858R mutant (unknown origin).

Where only a bound is given, the exact number is not on record here.

T1 sequence (P11362 whole entry): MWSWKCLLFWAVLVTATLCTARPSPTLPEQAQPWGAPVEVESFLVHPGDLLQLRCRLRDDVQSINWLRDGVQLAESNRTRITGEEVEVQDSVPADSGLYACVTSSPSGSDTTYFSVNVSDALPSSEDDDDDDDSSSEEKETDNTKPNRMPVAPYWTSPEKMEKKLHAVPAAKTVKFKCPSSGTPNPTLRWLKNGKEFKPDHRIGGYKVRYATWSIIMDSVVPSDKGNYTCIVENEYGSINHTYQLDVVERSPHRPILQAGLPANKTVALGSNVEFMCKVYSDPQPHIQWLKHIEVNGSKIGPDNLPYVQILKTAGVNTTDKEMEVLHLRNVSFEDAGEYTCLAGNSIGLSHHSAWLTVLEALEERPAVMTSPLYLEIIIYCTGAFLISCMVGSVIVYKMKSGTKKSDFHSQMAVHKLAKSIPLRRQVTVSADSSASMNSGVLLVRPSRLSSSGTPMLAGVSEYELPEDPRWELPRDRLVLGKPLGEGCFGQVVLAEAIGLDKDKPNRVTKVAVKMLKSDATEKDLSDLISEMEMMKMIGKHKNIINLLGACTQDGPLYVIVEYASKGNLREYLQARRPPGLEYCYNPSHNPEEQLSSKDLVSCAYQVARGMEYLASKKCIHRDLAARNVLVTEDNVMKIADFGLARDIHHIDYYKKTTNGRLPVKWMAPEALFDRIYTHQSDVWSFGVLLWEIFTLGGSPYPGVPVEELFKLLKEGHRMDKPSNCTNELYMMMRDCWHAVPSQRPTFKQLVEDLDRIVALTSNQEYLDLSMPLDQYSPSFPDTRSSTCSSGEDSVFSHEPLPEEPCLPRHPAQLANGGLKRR
T2 sequence (P21802 whole entry, the tested form may be a part): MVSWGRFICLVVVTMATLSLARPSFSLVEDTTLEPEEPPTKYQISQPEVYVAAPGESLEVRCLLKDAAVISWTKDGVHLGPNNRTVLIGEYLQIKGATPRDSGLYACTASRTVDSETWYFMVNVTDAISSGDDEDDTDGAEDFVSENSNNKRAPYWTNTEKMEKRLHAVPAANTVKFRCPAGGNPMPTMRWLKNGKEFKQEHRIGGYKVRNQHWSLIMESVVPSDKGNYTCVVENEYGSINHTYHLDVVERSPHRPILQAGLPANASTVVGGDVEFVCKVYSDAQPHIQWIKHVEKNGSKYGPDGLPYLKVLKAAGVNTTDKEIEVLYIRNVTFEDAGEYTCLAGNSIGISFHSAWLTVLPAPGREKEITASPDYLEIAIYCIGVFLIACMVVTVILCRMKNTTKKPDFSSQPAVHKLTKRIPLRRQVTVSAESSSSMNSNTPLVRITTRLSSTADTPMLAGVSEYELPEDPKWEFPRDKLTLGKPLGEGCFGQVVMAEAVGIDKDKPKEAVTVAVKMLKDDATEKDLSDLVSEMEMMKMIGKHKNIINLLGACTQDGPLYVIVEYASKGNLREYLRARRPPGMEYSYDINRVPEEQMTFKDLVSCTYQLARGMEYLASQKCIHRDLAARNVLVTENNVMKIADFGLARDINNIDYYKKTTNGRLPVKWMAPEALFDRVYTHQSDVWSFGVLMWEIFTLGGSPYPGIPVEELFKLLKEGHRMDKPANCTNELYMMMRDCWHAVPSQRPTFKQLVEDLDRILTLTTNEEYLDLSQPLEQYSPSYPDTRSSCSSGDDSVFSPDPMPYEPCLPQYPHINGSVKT
T3 sequence (P22455 whole entry): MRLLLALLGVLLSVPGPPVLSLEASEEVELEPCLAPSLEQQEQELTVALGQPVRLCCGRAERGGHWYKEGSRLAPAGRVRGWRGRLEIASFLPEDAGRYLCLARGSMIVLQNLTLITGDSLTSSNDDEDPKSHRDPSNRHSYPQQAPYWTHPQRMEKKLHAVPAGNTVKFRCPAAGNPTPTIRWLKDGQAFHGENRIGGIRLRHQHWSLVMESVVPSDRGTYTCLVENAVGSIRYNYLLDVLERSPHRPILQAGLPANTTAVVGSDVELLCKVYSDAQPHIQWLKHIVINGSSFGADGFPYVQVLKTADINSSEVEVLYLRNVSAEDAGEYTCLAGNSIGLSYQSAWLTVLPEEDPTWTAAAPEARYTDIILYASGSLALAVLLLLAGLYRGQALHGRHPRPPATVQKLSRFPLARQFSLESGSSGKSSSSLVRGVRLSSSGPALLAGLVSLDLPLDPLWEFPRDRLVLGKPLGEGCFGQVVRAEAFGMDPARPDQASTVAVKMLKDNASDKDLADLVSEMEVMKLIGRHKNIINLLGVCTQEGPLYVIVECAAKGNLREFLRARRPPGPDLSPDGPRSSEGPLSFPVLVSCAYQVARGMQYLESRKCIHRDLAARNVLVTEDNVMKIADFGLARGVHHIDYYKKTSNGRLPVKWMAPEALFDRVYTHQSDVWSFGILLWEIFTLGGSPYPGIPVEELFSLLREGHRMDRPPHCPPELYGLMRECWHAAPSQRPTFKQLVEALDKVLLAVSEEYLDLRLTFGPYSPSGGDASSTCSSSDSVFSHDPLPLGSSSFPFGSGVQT
Sequence of Fibroblast growth factor receptor 2 (Homo sapiens, UniProt P21802, V564M) (P21802 22-821 V564M limits assumed): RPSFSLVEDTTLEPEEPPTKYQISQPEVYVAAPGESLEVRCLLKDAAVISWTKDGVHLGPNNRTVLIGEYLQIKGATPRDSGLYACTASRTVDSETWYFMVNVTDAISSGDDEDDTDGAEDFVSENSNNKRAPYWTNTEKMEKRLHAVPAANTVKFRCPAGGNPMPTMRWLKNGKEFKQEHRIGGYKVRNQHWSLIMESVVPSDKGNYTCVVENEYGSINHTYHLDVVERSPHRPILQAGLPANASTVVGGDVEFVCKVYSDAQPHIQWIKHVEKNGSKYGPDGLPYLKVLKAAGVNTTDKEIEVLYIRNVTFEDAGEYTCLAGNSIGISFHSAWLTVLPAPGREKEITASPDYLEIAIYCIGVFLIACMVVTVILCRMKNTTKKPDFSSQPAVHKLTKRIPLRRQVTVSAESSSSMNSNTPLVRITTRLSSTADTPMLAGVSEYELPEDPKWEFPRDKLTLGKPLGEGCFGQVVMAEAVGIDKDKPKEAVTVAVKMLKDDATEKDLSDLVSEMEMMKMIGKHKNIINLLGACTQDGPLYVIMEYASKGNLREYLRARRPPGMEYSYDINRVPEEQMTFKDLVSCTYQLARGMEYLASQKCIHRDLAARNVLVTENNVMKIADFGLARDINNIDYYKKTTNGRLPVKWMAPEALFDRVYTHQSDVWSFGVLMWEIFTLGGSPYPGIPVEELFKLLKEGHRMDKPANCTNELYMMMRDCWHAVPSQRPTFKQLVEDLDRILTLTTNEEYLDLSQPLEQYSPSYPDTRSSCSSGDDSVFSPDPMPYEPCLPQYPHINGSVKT
Sequence of Fibroblast growth factor receptor 1 (Mus musculus, UniProt P16092) (P16092 whole entry): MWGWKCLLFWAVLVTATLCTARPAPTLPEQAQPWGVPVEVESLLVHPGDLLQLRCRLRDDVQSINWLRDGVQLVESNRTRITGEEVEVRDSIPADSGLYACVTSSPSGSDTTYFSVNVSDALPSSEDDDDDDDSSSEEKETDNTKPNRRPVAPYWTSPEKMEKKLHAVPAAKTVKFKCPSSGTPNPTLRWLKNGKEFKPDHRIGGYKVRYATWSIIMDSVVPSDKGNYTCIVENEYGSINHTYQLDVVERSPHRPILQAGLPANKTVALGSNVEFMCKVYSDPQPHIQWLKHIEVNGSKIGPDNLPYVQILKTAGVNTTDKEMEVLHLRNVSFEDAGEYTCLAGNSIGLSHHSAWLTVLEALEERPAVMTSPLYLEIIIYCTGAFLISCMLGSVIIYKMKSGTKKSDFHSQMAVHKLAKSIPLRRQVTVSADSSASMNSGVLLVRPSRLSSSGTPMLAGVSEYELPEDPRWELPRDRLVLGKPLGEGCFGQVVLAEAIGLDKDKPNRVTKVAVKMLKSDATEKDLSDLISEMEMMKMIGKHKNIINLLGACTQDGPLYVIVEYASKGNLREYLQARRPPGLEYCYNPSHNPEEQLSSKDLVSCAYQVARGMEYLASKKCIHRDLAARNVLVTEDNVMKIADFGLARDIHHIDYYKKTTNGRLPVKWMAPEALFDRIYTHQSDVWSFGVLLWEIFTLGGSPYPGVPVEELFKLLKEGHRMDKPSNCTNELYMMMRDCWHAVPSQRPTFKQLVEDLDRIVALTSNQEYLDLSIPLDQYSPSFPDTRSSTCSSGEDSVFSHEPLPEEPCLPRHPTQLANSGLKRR
Sequence of Fibroblast growth factor receptor 3 (P22607 whole entry): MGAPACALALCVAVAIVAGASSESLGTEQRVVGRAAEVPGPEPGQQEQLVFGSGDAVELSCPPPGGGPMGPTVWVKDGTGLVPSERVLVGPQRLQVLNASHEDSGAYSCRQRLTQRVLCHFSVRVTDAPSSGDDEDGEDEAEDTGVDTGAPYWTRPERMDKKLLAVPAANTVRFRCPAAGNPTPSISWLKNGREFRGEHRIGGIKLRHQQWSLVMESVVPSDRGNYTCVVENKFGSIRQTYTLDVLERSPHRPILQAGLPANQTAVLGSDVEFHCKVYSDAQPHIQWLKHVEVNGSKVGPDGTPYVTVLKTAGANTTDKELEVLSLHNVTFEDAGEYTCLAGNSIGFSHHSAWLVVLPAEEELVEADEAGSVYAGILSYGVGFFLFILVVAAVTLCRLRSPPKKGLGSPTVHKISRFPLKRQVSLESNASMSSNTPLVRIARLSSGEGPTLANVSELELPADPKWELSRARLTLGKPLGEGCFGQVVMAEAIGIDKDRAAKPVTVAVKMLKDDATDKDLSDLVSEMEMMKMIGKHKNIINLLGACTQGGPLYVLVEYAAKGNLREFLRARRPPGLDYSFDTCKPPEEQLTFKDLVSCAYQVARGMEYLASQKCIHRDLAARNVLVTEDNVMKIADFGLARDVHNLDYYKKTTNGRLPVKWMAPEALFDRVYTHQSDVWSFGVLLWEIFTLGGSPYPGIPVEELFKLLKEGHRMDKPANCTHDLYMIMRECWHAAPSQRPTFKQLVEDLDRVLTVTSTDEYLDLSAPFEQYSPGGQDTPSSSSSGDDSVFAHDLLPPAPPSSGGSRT

Take `CCN1CCN(c2ccc(C(=O)Nc3n[nH]c4cc(-c5cccc(OC)c5)ccc34)cc2)CC1`: in [1], the concentration for half-maximal inhibition (IC50) – broadly, the point on the concentration scale where inhibition reaches its midpoint – is 642 nM.

Regarding `Nc1ncc2c(n1)-c1ccccc1[C@H](c1ccccc1)C2`, the half-inhibitory concentration (IC50) is 840 nM in test [2] and 1230 nM in [3].

As to `O=CN1CCN(c2ccc(/C=C3\C(=O)Nc4ccccc43)cc2)CC1`, the IC50 lay in the range of 10000 to 20000 nM in [4] and 20000 to 40000 nM in [5].

Turning to `C=CC(=O)Nc1ccc(CN2C(=O)N(c3cc(OC)cc(OC)c3)Cc3cnc(Nc4ccc(N5CCN(C)CC5)cc4)nc32)cc1`, the IC50 came to 4 nM in test [6], 93 nM in [7], 32 nM in [8] and 58 nM in test [9]. In addition, the 50% effective concentration (EC50) (commonly the concentration at which the effect is half-maximal) in test [10] is 1 nM.

On to `C=CC(N)=O` [ACRYLAMIDE], for which the IC50 in test [11] was 938 nM.

On to `Cc1c[nH]c(/C=C2\C(=O)Nc3ccccc32)c1CCC(=O)O`, for which the 50% inhibitory concentration (IC50) in test [4] and in [5] was 10000 to 20000 nM each time.

Take `CCN1CCN(c2ccc(C(=O)Nc3n[nH]c4cc(-c5cccc(OC)c5F)ccc34)cc2)CC1`: the half-maximal inhibitory concentration (IC50) in test [1] turned out to be 40.5 nM.

For the compound `C=CC(=O)Nc1ccc(CN(C(=O)Nc2c(Cl)c(OC)cc(OC)c2Cl)c2cc(Nc3ccc(N4CCN(C)CC4)cc3)ncn2)cc1`, the half-inhibitory concentration (IC50) in [6] was less than 1 nM; in test [7], 41 nM; in test [8], 22 nM; in [9], 64 nM; in [12] it was 16.8 nM. A half-maximal response in test [10] (EC50) required 1 nM.
